# From patent US10441568B2, “Nitroxide radicals for the treatment of diseases of the respiratory tract” (priority 2015, dated 2019)
# Entries after “also recorded” stand apart in the source; their conditions may differ.
# Tests used:
# IFN-γ = IFN-γ level in OVA asthma model; format: in vivo, BALB/c mice; details: for IFN-γ level: lung tissue (table title)
# Description: (§1) All experimental procedures were carried out in accordance with the NIH Guidelines for the Care and Use of Laboratory Animals. Specific pathogen-free (SPF) male BALB/c mice (6-7 weeks of age, 18-22 grams), routinely screened serologically for relevant respiratory pathogens, were maintained in an animal housing facility for 1 week before use and given access to food and water ad libitum. Animals were randomly assigned to the indicated experimental groups, and sensitized with two intraperitoneal (IP) injections (20 μg ovalbumin (OVA) emulsified in 2 mg aluminum hydroxide (an adjuvant) in 200 μl phosphate buffer saline (PBS), pH 7.4), on days 1 and 10.
# (§2) After another week, the animals were challenged by exposure to ovalbumin (OVA) aerosol (1%, w/v, in PBS) for 30 minutes each day on days 17, 18 and 19, in order to elicit an inflammatory reaction in the lungs characterized by airway hyper-responsiveness (AHR), an influx of inflammatory cells (particularly eosinophils), and increased pulmonary levels of various cytokines and transforming growth factors, protein nitration and lipid peroxidation.
# (§3) Bronchoalveolar lavage (BAL) fluid (also referred to herein as “BALf”) and bronchial submucosal inflammation are characteristic features of asthma. Mice were euthanized with an overdose of 50 mg/kg pentobarbital and ice-cold phosphate buffer saline (PBS) (0.6 ml) was instilled into the lungs. BAL fluid was obtained by three aspirations via tracheal cannulation, centrifuged, and the supernatant collected and stored at −70° C. Cell pellets were re-suspended in PBS and 100 μl aliquots placed onto slides and centrifuged (200 g, 4° C., 10 minutes) in a cytospin machine. Induction of oxidative stress was evaluated using a 2′,7′-dichlorofluorescein fluorescence assay, and total IgE, IgG2a, panel of cytokines, transforming growth factors, collagen, protein nitration and lipid peroxidation were measured using commercial kits according to the manufacturer's recommendations. A Sircol™ collagen assay kit was obtained from Biocolor Life Sciences Assays, a protein nitration assay kit was obtained from Abcam, and other assay kits were obtained from PeproTech Asia.
# (§4) The efficacy of oral administration of 3-CP (1 weight percent in chow) during the sensitization period and/or challenge period was then compared to IP injection (˜300 mg/kg, 0.5 hour before the OVA challenge) or intranasal instillation (˜150 mg/kg, 0.5 hour before the OVA and 6 hours later) of 3-CP, as well as to dexamethasone treatment (1 mg/kg, 3 daily IP injections, 0.5 hour prior to the challenge with OVA aerosol).
# (§5) In order to assess the effect of 3-CP on inflammatory signaling pathways, […] to procedures described hereinabove, upon oral, intranasal or IP administration of 3-CP.
# TGF-β1 = TGF-β1 level in OVA asthma model; format: in vivo, BALB/c mice
# Description: as §1, §2, §3, §4, §5
# [1] = test system: ovalbumin-induced murine model of asthma; assay: Inflammatory cell counts in BAL fluid in OVA asthma model; format: in vivo, BALB/c mice
# Description: as §1, §2
# The features of allergic inflammation typically reached their peak a day or two after the final exposure. Mice were then subjected to one of the following treatments: (i) sham-sensitization plus challenge with PBS; (ii) positive control-sensitization plus challenge with OVA; (iii) sensitization plus challenge with OVA and various indicated treatments (e.g., with nitroxide or dexamethasone), including different modes (oral, IP, intranasal, inhalation), time windows (sensitization stage, challenge stage, both stages and after the last challenge), and doses of nitroxide administration.
# as §3
# Control and experimental groups contained 10 mice each. The effects of the nitroxides were investigated by feeding the mice ad libitum a diet of nitroxide-containing chow (1 weight percent) during both ovalbumin (OVA)-induced sensitization and challenging periods (days −2-19), during the sensitization period (days −2-11) or challenge period (days 13-19). Nitroxide-containing chow were prepared by dissolving 500 grams chow in a minimum volume of water containing 5 grams nitroxide and 5 grams commercial chicken soup powder, preparing the chow and drying it at 37° C. (animals were reluctant to eat nitroxide-containing chow until chicken soup powder was added).
# 3-CP was also administered using 3 daily intraperitoneal (IP) injections (200 μl, 0.15 M, ˜300 mg/kg) 0.5 hour prior to the challenge with OVA aerosol, or by nasal instillation (50 μl, 0.3 M, ˜150 mg/kg) twice a day 0.5 hour prior to the challenge with OVA aerosol and 6 hours later without exceeding its maximally tolerated dose, which has been previously established to be 300-500 mg/kg. Both 3-CP and TPL were non-toxic when administered orally or via IP injection to untreated OVA-challenged mice for 22 days. […]
# IL-4 = IL-4 level in OVA asthma model; format: in vivo, BALB/c mice
# Description: as §1, §2, §3, §4, §5
# [2] = test system: bleomycin-induced pulmonary fibrosis; assay: Collagen content in lung tissue, bleomycin pulmonary fibrosis model; format: in vivo, mice; details: 3-CP 150 mg/kg daily intranasal, 14 days, FIG. 20
# Description: Bronchoalveolar lavage (BAL) fluid (also referred to herein as “BALf”) and bronchial submucosal inflammation are characteristic features of asthma. Mice were euthanized with an overdose of 50 mg/kg pentobarbital and ice-cold phosphate buffer saline (PBS) (0.6 ml) was instilled into the lungs. BAL fluid was obtained by three aspirations via tracheal cannulation, centrifuged, and the supernatant collected and stored at −70° C. Cell pellets were re-suspended in PBS and 100 μl aliquots placed onto slides and centrifuged (200 g, 4° C., 10 minutes) in a cytospin machine. Induction of oxidative stress was evaluated using a 2′,7′-dichlorofluorescein fluorescence assay, and total IgE, IgG2a, panel of cytokines, transforming growth factors, collagen, protein nitration and lipid peroxidation were measured using commercial kits according to the manufacturer's recommendations. A Sircol™ collagen assay kit was obtained from Biocolor Life Sciences Assays, a protein nitration assay kit was obtained from Abcam, and other assay kits were obtained from PeproTech Asia. […]
# The degree of fibrosis was evaluated by measuring collagen content in lung tissue.
# [3] = test system: ovalbumin-induced asthma model; assay: Lung histopathology, H&E pathology scoring, OVA asthma model; format: in vivo, mice; details: FIG. 9
# Description: Following aspiration of BAL as described hereinabove, a thoracotomy was performed, and the right main bronchus was tied. The left lung was fixed by means of intrabronchial infusion with 1 ml of 4% formaldehyde, and then immersed in fixative (10% (v/v) neutral buffered formalin) for 24 hours at 4° C. Transverse sections of the left lung were embedded in paraffin, and […] sections were stained with hematoxylin and eosin (H&E) by Hadassah Hospital Pathology Service (Jerusalem, Israel). In addition, periodic acid-Schiff (PAS) staining was performed on lung tissue, and the degree of mucin production was measured from PAS staining.
# In order to evaluate the effect of 3-CP on lung pathology, animals in an ovalbumin-induced asthma model were treated with 3-CP, and killed by abdominal aortic transaction and exsanguination, according to procedures described hereinabove. Lung tissue was examined by hematoxylin and eosin (H&E) staining, the degree of mucin production was determined from periodic-acid-Schiff (PAS) staining.
# [4] = OVA IP-C: 3-CP intraperitoneal during challenge
# [5] = OVA oral-C: 3-CP oral during challenge
# [6] = OVA oral-S&C: 3-CP oral during sensitization and challenge
# [7] = OVA oral-S: 3-CP oral during sensitization
# [8] = oral administration vs IP injection
# [9] = oral, 1 weight percent in chow, FIG. 4
smiles,measurement,setting,value
"CC1(C)CC(C(N)=O)C(C)(C)N1[O] (stereo not shown) [3-CP, 3-Carbamoyl-2,2,5,5-tetramethyl-pyrrolidin-1-oxyl]",IFN-γ level,IFN-γ; [4],5.17 ± 0.19 ng/mg
same,IFN-γ level,IFN-γ; [5],5.32 ± 0.38 ng/mg
same,IFN-γ level,IFN-γ; [6],5.60 ± 0.22 ng/mg
same,IFN-γ level,IFN-γ; [7],3.78 ± 0.27 ng/mg
same,effect on OVA-induced decrease in the level of INF-γ,"IFN-γ; lung tissue, FIG. 7C and Table 1",inhibited
same,"modulating IFN-γ level, oral compared with IP 3-CP",IFN-γ; [8],consistently more effective than IP injection of 3-CP
same,effect on OVA-induced increase in the level of TGF-β1,TGF-β1; FIG. 7E and Table 1,inhibited
same,"reducing TGF-β1 level, oral 3-CP compared with intranasal 3-CP and IP dexamethasone",TGF-β1; FIG. 7E and Table 1,more effective than intranasal instillation of 3-CP and IP injection of dexamethasone
same,TGF-β1 level,TGF-β1; [4],0.88 ± 0.05 ng/mg
same,TGF-β1 level,TGF-β1; [5],0.72 ± 0.08 ng/mg
same,TGF-β1 level,TGF-β1; [6],0.73 ± 0.07 ng/mg
same,TGF-β1 level,TGF-β1; [7],0.76 ± 0.02 ng/mg
same,"modulating TGF-β1 level, oral compared with IP 3-CP",TGF-β1; [8],consistently more effective than IP injection of 3-CP
same,"levels of inflammatory cells, oral 3-CP in both periods compared with other regimens","[1]; oral 1 weight percent in chow during sensitization and challenge periods, FIG. 5","more effective than IP injection or intranasal instillation of 3-CP, oral administration of 3-CP during the sensitization period or challenge period alone, or treatment with dexamethasone; also recorded: more effective than treatment with dexamethasone"
same,"BAL inflammatory cell/eosinophil count attenuation, 3-CP compared with TPL",[1]; [9],considerably more effective than TPL
same,effect on OVA-induced increase in total inflammatory cell and eosinophil counts in BAL fluid,[1]; [9],attenuated the increase in total inflammatory cell counts and eosinophil counts
same,effect on OVA-induced increase in the level of IL-4,IL-4; FIG. 7A and Table 1,inhibited
same,IL-4 level,IL-4; [4],1.70 ng/mg
same,IL-4 level,IL-4; [5],2.03 ng/mg
same,IL-4 level,IL-4; [6],1.65 ng/mg
same,IL-4 level,IL-4; [7],2.44 ng/mg
same,"modulating IL-4 level, oral compared with IP 3-CP",IL-4; [8],consistently more effective than IP injection of 3-CP
same,"effect on bleomycin-induced pulmonary fibrosis, pulmonary collagen content",[2],significantly inhibited
same,"effect on degree of lung pathology, H & E pathology scoring",[3]; 3-CP via all tested modes of delivery,reduced the degree of lung pathology
same,"H & E lung pathology, 3-CP compared with dexamethasone",[3],more effective in this respect than treatment with dexamethasone
